Experiment: xn = mol fraction of the nth substance listed
Conditions: Fluid (supercritical or subcritical phases), Burnett expansion method

CCC [propane] + O=C=O
Conditions	mass density [kg/m3]
360.01 K, 5054 kPa, x2 = 0.8017	90.4354
360.01 K, 6218.2 kPa, x2 = 0.5158	141.203
360.02 K, 178.29 kPa, x2 = 0.8017	2.6378
360.02 K, 245.35 kPa, x2 = 0.8017	3.6378
360.02 K, 337.31 kPa, x2 = 0.8017	5.0167
360.02 K, 463.19 kPa, x2 = 0.8017	6.9183
360.02 K, 634.97 kPa, x2 = 0.8017	9.5406
360.02 K, 868.69 kPa, x2 = 0.8017	13.1566
360.02 K, 3863.5 kPa, x2 = 0.8017	65.5911
360.02 K, 6495 kPa, x2 = 0.8017	124.684
370 K, 1659.1 kPa, x2 = 0.8017	25.0073
370.01 K, 476.31 kPa, x2 = 0.8017	6.9151
370.01 K, 653.23 kPa, x2 = 0.8017	9.5361
370.01 K, 894.13 kPa, x2 = 0.8017	13.1504
370.01 K, 1220.3 kPa, x2 = 0.8017	18.1344
370.01 K, 2244.1 kPa, x2 = 0.8017	34.4826
370.01 K, 3013.9 kPa, x2 = 0.8017	47.5475
370.01 K, 5267 kPa, x2 = 0.8017	90.3909
370.02 K, 205.87 kPa, x2 = 0.5158	2.9726
370.02 K, 283.04 kPa, x2 = 0.5158	4.1011
370.02 K, 346.79 kPa, x2 = 0.8017	5.0143
370.02 K, 388.65 kPa, x2 = 0.5158	5.6577
370.02 K, 992.19 kPa, x2 = 0.5158	14.8545
370.02 K, 1345.8 kPa, x2 = 0.5158	20.4921
370.02 K, 1815.3 kPa, x2 = 0.5158	28.2684
370.02 K, 2426.9 kPa, x2 = 0.5158	38.9941
370.02 K, 3206 kPa, x2 = 0.5158	53.7882
370.02 K, 4009.4 kPa, x2 = 0.8017	65.5581
370.02 K, 4171 kPa, x2 = 0.5158	74.1924
370.02 K, 5317.2 kPa, x2 = 0.5158	102.331
370.02 K, 6617 kPa, x2 = 0.5158	141.135
370.02 K, 6810.4 kPa, x2 = 0.8017	124.62
370.03 K, 532.61 kPa, x2 = 0.5158	7.8051
370.03 K, 728.17 kPa, x2 = 0.5158	10.7675
380.02 K, 188.21 kPa, x2 = 0.8017	2.6354
380.02 K, 259.02 kPa, x2 = 0.8017	3.6346
380.02 K, 399.41 kPa, x2 = 0.5158	5.6555
380.02 K, 671.46 kPa, x2 = 0.8017	9.5319
380.02 K, 919.55 kPa, x2 = 0.8017	13.1448
380.02 K, 1255.9 kPa, x2 = 0.8017	18.1264
380.02 K, 1386.9 kPa, x2 = 0.5158	20.4838
380.02 K, 1709 kPa, x2 = 0.8017	24.9958
380.02 K, 1873.6 kPa, x2 = 0.5158	28.257
380.02 K, 3114.5 kPa, x2 = 0.8017	47.5261
380.02 K, 3326.5 kPa, x2 = 0.5158	53.7656
380.02 K, 4154.3 kPa, x2 = 0.8017	65.5297
380.02 K, 4347.6 kPa, x2 = 0.5158	74.1614
380.02 K, 5478.5 kPa, x2 = 0.8017	90.3475
380.02 K, 5579.3 kPa, x2 = 0.5158	102.287
380.02 K, 7122.7 kPa, x2 = 0.8017	124.564
380.03 K, 356.25 kPa, x2 = 0.8017	5.0122
380.03 K, 489.43 kPa, x2 = 0.8017	6.9121
380.03 K, 547.58 kPa, x2 = 0.5158	7.802
380.03 K, 749.01 kPa, x2 = 0.5158	10.7633
380.03 K, 1021.4 kPa, x2 = 0.5158	14.8485
380.03 K, 2314.7 kPa, x2 = 0.8017	34.4669
380.03 K, 2510.4 kPa, x2 = 0.5158	38.978
380.03 K, 7010.3 kPa, x2 = 0.5158	141.07
380.04 K, 211.45 kPa, x2 = 0.5158	2.9713
380.04 K, 290.81 kPa, x2 = 0.5158	4.0993
390.02 K, 2384.9 kPa, x2 = 0.8017	34.4507
390.02 K, 3446.3 kPa, x2 = 0.5158	53.7433
390.02 K, 5838.5 kPa, x2 = 0.5158	102.241
390.03 K, 193.15 kPa, x2 = 0.8017	2.6342
390.03 K, 217.06 kPa, x2 = 0.5158	2.9702
390.03 K, 265.87 kPa, x2 = 0.8017	3.6329
390.03 K, 365.64 kPa, x2 = 0.8017	5.0098
390.03 K, 410.13 kPa, x2 = 0.5158	5.6532
390.03 K, 502.51 kPa, x2 = 0.8017	6.9089
390.03 K, 689.66 kPa, x2 = 0.8017	9.5275
390.03 K, 769.82 kPa, x2 = 0.5158	10.759
390.03 K, 944.86 kPa, x2 = 0.8017	13.1385
390.03 K, 1050.5 kPa, x2 = 0.5158	14.8425
390.03 K, 1428 kPa, x2 = 0.5158	20.475
390.03 K, 1758.8 kPa, x2 = 0.8017	24.9833
390.03 K, 1931.7 kPa, x2 = 0.5158	28.245
390.03 K, 2593.4 kPa, x2 = 0.5158	38.9614
390.03 K, 3214.7 kPa, x2 = 0.8017	47.5025
390.03 K, 4298.5 kPa, x2 = 0.8017	65.4967
390.03 K, 4522.9 kPa, x2 = 0.5158	74.1282
390.03 K, 5688.3 kPa, x2 = 0.8017	90.3013
390.03 K, 7399 kPa, x2 = 0.5158	141.004
390.03 K, 7432.4 kPa, x2 = 0.8017	124.497
390.04 K, 298.57 kPa, x2 = 0.5158	4.0977
390.04 K, 562.52 kPa, x2 = 0.5158	7.7989
390.04 K, 1291.3 kPa, x2 = 0.8017	18.1174
400.02 K, 970.17 kPa, x2 = 0.8017	13.1371
400.03 K, 272.65 kPa, x2 = 0.8017	3.6324
400.03 K, 375.15 kPa, x2 = 0.8017	5.0093
400.03 K, 515.7 kPa, x2 = 0.8017	6.908
400.03 K, 577.33 kPa, x2 = 0.5158	7.7944
400.03 K, 707.92 kPa, x2 = 0.8017	9.5262
400.03 K, 790.53 kPa, x2 = 0.5158	10.7528
400.03 K, 1079.5 kPa, x2 = 0.5158	14.8335
400.03 K, 1326.5 kPa, x2 = 0.8017	18.1154
400.03 K, 1468.7 kPa, x2 = 0.5158	20.4633
400.03 K, 1808.4 kPa, x2 = 0.8017	24.9801
400.03 K, 2454.9 kPa, x2 = 0.8017	34.4454
400.03 K, 3565.3 kPa, x2 = 0.5158	53.7096
400.03 K, 6095.5 kPa, x2 = 0.5158	102.176
400.03 K, 7739.4 kPa, x2 = 0.8017	124.476
400.03 K, 7784.2 kPa, x2 = 0.5158	140.912
400.04 K, 198.07 kPa, x2 = 0.8017	2.6338
400.04 K, 222.65 kPa, x2 = 0.5158	2.9684
400.04 K, 306.29 kPa, x2 = 0.5158	4.0953
400.04 K, 420.82 kPa, x2 = 0.5158	5.6498
400.04 K, 1989.5 kPa, x2 = 0.5158	28.2277
400.04 K, 2676 kPa, x2 = 0.5158	38.9372
400.04 K, 3314.3 kPa, x2 = 0.8017	47.4952
400.04 K, 4441.8 kPa, x2 = 0.8017	65.4859
400.04 K, 4696.7 kPa, x2 = 0.5158	74.0811
400.04 K, 5896.6 kPa, x2 = 0.8017	90.2853

Source: the NIST ThermoML archive (doi:10.1021/je100148h)
